In article PMC11642016 (International Journal of Molecular Sciences, 2024):

Columns and labels:
PANC-1 cells = test: CellTiter-Glo luminescent cell viability assay, PANC-1; settings: PANC-1, 72 h, mean ± SD, n = 2
Description: Primary fibroblast cultures were prepared from human skin biopsies and maintained in DMEM supplemented with 10% FBS, 1% penicillin-streptomycin, and 1% MEM Non-Essential Amino Acids Solution (Thermo Fisher Scientific). […] All cell lines were cultured in a humidified atmosphere at 37 °C and 5% CO2, passaged twice a week, and the experiments were performed on cells between passage 5 and 15. The cell lines were routinely screened for the absence of mycoplasma infection (DAPI staining).
The effects of the synthesized compounds on cell viability were measured using the CellTiter-Glo® luminescent cell viability assay (Promega, Madison, WI, USA), according to the manufacturer’s instructions. Briefly, cells were seeded onto a flat-bottomed, white 96-well plate (BRANDplates, cat. no.: 781965)), with the following densities: PANC-1: 750 cells/well, Fadu: 2000 cells/well, primary fibroblasts: 2000 cells/well, HEK293T WT: 1000 cells/well, HEK293T CLPP^−/−: 2500 cells/well. After seeding, cells were incubated for a further 48 h before treatment. Cells were treated with the compounds for 72 h. Three concentrations (25.0 µM; 8.3 µM; 2.8 µM) were applied during the initial cell viability screening, while for the determination of dose–response curves, 1.5-fold serially diluted compound concentrations were applied (range: 26 µM–0.7 µM). After treatment, the luminescence signal was recorded using a microplate reader (BioTek Synergy 2 Multi-Mode Reader, BioTek, Winooski, VT, USA).
Data analysis was performed using GraphPad Prism 9.5.0 software (GraphPad Software, San Diego, CA, USA). […] The dose–response curves were generated by four-parameter nonlinear regression, and the IC50 values were determined as the means ± SEM of the best-fit values of 3 independent measurements. The R^2 values were consistently above 0.93, indicating a strong fit of the model to the experimental data (Supplementary S.89). […] Dunnett’s post hoc test was applied to adjust for multiple comparisons, minimizing the likelihood of false positive results. Assumptions for ANOVA, including normality (assessed via QQ plots) and homogeneity of variance (tested using the Brown–Forsythe test), were verified. The following significance levels were applied: * p < 0.05, ** p < 0.01, *** p < 0.001, **** p < 0.0001. […] The tumor selectivity of the compounds was quantitatively characterized by the selectivity index (SI). This parameter was calculated as the ratio of the average best-fit IC50 value for primary fibroblasts and the best-fit IC50 value for the corresponding tumor cells (PANC-1 or Fadu).

Fadu cells = test: CellTiter-Glo luminescent cell viability assay, Fadu; settings: Fadu, 72 h, mean ± SD, n = 2
PANC-1 and Fadu cells = test: CellTiter-Glo viability, statements covering both cancer cell lines; format: cell-based, human; settings: 8.3 µM; both PANC-1 and Fadu; first-set screening
Description: The effects of the synthesized compounds on cell viability were measured using the CellTiter-Glo® luminescent cell viability assay (Promega, Madison, WI, USA), according to the manufacturer’s instructions. […] After seeding, cells were incubated for a further 48 h before treatment. Cells were treated with the compounds for 72 h. […] After treatment, the luminescence signal was recorded using a microplate reader (BioTek Synergy 2 Multi-Mode Reader, BioTek, Winooski, VT, USA).

NCC#Cc1cccc(CN2C(=O)C3=C(CCN(Cc4ccc(-n5cc(-[c-]6cccc6)nn5)cc4)C3)N3CCN=C23)c1.[Fe+2].c1cc[cH-]c1 [2a]
Cell Viability (% of Control) 2.8 µM (PANC-1 cells; first-set screening): 92 ± 2 % of Control | Cell Viability (% of Control) 2.8 µM (PANC-1 cells; second-set screening): 117 ± 4 % of Control | Cell Viability (% of Control) 8.3 µM (PANC-1 cells; first-set screening): 0 ± 0 % of Control | Cell Viability (% of Control) 8.3 µM (PANC-1 cells; second-set screening): 92 ± 14 % of Control | Cell Viability (% of Control) 25 µM (PANC-1 cells; first-set screening): 0 ± 0 % of Control | Cell Viability (% of Control) 25 µM (PANC-1 cells; second-set screening): 0 ± 0 % of Control | Cell Viability (% of Control) 2.8 µM (Fadu cells; first-set screening): 107 ± 5 % of Control | Cell Viability (% of Control) 2.8 µM (Fadu cells; second-set screening): 114 ± 8 % of Control | Cell Viability (% of Control) 8.3 µM (Fadu cells; first-set screening): 3 ± 0 % of Control | Cell Viability (% of Control) 8.3 µM (Fadu cells; second-set screening): 56 ± 9 % of Control | Cell Viability (% of Control) 25 µM (Fadu cells; first-set screening): 0 ± 0 % of Control | Cell Viability (% of Control) 25 µM (Fadu cells; second-set screening): 0 ± 0 % of Control | eradication of cancer cells at 8.3 µM (PANC-1 and Fadu cells): practically complete eradication of both types of cancer cells
